The record followed here is US9212167B2, “Mitochondrial targeted stimulators of apoptosis” (The Rockefeller University, priority 2011, dated 2015).

Common to all, as to type: cell-based
Assay [1] relates to HeLa cells. Put plainly: Alamar Blue cell viability, HeLa cells. Particulars: ten-point dose response, up to 50 μM, FIG. 1. The protocol: (§1) The compound described above as Compound 15 was tested for its effect on the viability of cells using Alamar Blue staining. This reagent takes advantage of the conversion by healthy cells of a non-fluorescent molecule, resazurin, to the brightly red-fluorescent resorufin. The assay was performed in 384 well plate format, and the fluorescence (560 nm Ex/590 nm Em) was detected and quantified using a Perkin-Elmer Envision plate reader. Four samples were compared. Samples were the compound identified as 2PA in paragraph [0014] (i.e. just “A” without “L” or “B”), a dimer of 2PA (i.e. A-L-A, wherein L is C6H4):
(§2) PK11195 alone and Compound 15. Ten-point dose responses were performed in both HeLa and T98G cells to determine the concentration at which each compound was effective.
For orientation: The colour change of resazurin is a common sign of viable cells or microbes.

In assay [2] the test system is HeLa cells. Put plainly: Count of apoptotic HeLa cells with and without pan-caspase inhibitor ZVAD-FMK. Particulars: 40 μM, 3 or 6 hours. The protocol:
To verify the induction of apoptosis by Compound 15, HeLa cells were treated with 40 μM of the compound and incubated for 3 or 6 hours in the presence and absence of pan-caspase inhibitor ZVAD-FMK. Apoptotic cells were counted at the indicated times in each condition.

In assay [3] the test system is T98G cells. Put plainly: Alamar Blue cell viability, T98G cells. Particulars: ten-point dose response, up to 50 μM, FIG. 2. The protocol:
as §1, §2

With `CN[C@@H](C)C(=O)N[C@H](C(=O)N1CCC[C@H]1Cn1nnnc1Sc1ccccc1)C(C)OCc1cn(CCOCCOCCOCCNC(=O)c2cc3ccccc3c(-c3ccccc3Cl)n2)nn1` (stereo partly shown) [Compound 15], the “cell killing (percent survival as a function of concentration)” value in assay [1] is “kills both HeLa and T98G cells effectively”; in assay [3], “kills both HeLa and T98G cells effectively”. In assay [2] (absence of ZVAD-FMK), the “induction of apoptosis (apoptotic cells counted)” value is on record as “can induce cell death”. The “induction of apoptosis (apoptotic cells counted) with caspase inhibitor” value in assay [2] (presence of pan-caspase inhibitor ZVAD-FMK) is recorded as “the caspase inhibitor can prevent this induction of cell death”.

As to `CCC(C)N(C)C(=O)c1cc2ccccc2c(-c2ccccc2Cl)n1` (stereo not shown) [PK11195], the “cell killing (percent survival as a function of concentration)” value in assay [1] and in assay [3] was “do not kill at any concentration” throughout.

On to `CNC(C)C(=O)NC(C(=O)N1CCCC1Cn1nnnc1Sc1ccccc1)C(C)OCC#CC#CCOC(C)C(NC(=O)C(C)NC)C(=O)N1CCCC1Cn1nnnc1Sc1ccccc1` (stereo not shown) [dimer], for which the “cell killing (percent survival as a function of concentration)” value in assay [1] and in assay [3] was “do not kill at any concentration” each time.

As for `C#CCOC(C)C(NC(=O)C(C)NC)C(=O)N1CCCC1Cn1nnnc1Sc1ccccc1` (stereo not shown) [monomer], the “cell killing (percent survival as a function of concentration)” value in assay [1] and in assay [3] was “do not kill at any concentration” each time.
